Experiments:
[1] = tested on: IGROV1; test: NCI cytotoxicity screen; format: cell-based, human
[2] = tested on: TK-10; test: NCI cytotoxicity screen; format: cell-based, human
[3] = tested on: LOX IMVI; test: NCI cytotoxicity screen; format: cell-based, human
[4] = tested on: RPMI-8226; test: NCI cytotoxicity screen; format: cell-based, human
[5] = tested on: OVCAR-8; test: NCI cytotoxicity screen; format: cell-based, human
[6] = tested on: RXF 393; test: NCI cytotoxicity screen; format: cell-based, human
[7] = tested on: CCRF-CEM; test: NCI cytotoxicity screen; format: cell-based, human
[8] = tested on: HS 578T; test: NCI cytotoxicity screen; format: cell-based, human
[9] = tested on: EKVX; test: NCI cytotoxicity screen; format: cell-based, human
[10] = tested on: MDA-MB-468; test: NCI cytotoxicity screen; format: cell-based, human
[11] = tested on: M14; test: NCI cytotoxicity screen; format: cell-based, human
[12] = tested on: UO-31; test: NCI cytotoxicity screen; format: cell-based, human
[13] = tested on: MDA-MB-435; test: NCI cytotoxicity screen; format: cell-based, human
[14] = tested on: SF-539; test: NCI cytotoxicity screen; format: cell-based, human
[15] = tested on: SNB-75; test: NCI cytotoxicity screen; format: cell-based, human; settings: 10.0 μM one dose
[16] = tested on: SNB-19; test: NCI cytotoxicity screen; format: cell-based, human
[17] = tested on: PC-3; test: NCI cytotoxicity screen; format: cell-based, human; settings: 10.0 μM one dose
[18] = tested on: U251; test: NCI cytotoxicity screen; format: cell-based, human; settings: U-251
[19] = tested on: ACHN; test: NCI cytotoxicity screen; format: cell-based, human
[20] = tested on: NCI-H460; test: NCI cytotoxicity screen; format: cell-based, human; settings: 10.0 μM one dose
[21] = tested on: OVCAR-4; test: NCI cytotoxicity screen; format: cell-based, human
[22] = tested on: HOP-92; test: NCI cytotoxicity screen; format: cell-based, human
[23] = tested on: SF-295; test: NCI cytotoxicity screen; format: cell-based, human
[24] = tested on: MCF7; test: NCI cytotoxicity screen; format: cell-based, human
[25] = tested on: HCT-116; test: NCI cytotoxicity screen; format: cell-based, human
[26] = tested on: SK-MEL-28; test: NCI cytotoxicity screen; format: cell-based, human
[27] = tested on: MOLT-4; test: NCI cytotoxicity screen; format: cell-based, human
[28] = tested on: HCC-2998; test: NCI cytotoxicity screen; format: cell-based, human
[29] = tested on: NCI-H322M; test: NCI cytotoxicity screen; format: cell-based, human
[30] = tested on: OVCAR-5; test: NCI cytotoxicity screen; format: cell-based, human
[31] = tested on: DU-145; test: NCI cytotoxicity screen; format: cell-based, human
[32] = tested on: 786-0; test: NCI cytotoxicity screen; format: cell-based, human
[33] = tested on: SK-OV-3; test: NCI cytotoxicity screen; format: cell-based, human; settings: 10.0 μM one dose
[34] = tested on: CAKI-1; test: NCI cytotoxicity screen; format: cell-based, human
[35] = tested on: SK-MEL-2; test: NCI cytotoxicity screen; format: cell-based, human
[36] = tested on: COLO 205; test: NCI cytotoxicity screen; format: cell-based, human; settings: 10.0 μM one dose; COLO-205
[37] = tested on: HOP-62; test: NCI cytotoxicity screen; format: cell-based, human
[38] = tested on: NCI-H23; test: NCI cytotoxicity screen; format: cell-based, human
[39] = tested on: HT29; test: NCI cytotoxicity screen; format: cell-based, human; settings: HT-29
[40] = tested on: K-562; test: cells; settings: Homo sapiens, K562
[41] = tested on: Leukemia subpanel tumor cell lines; test: NCI cytotoxicity screen, subpanel; format: cell-based, human; settings: subpanel value, Leukemia
[42] = tested on: HL-60(TB); test: cells; settings: Homo sapiens
[43] = tested on: Melanoma subpanel tumor cell lines; test: NCI cytotoxicity screen, subpanel; format: cell-based, human; settings: subpanel value, Melanoma
[44] = tested on: Prostate cancer subpanel tumor cell lines; test: NCI cytotoxicity screen, subpanel; format: cell-based, human; settings: subpanel value, Prostate cancer
[45] = tested on: NSC lung cancer subpanel tumor cell lines; test: NCI cytotoxicity screen, subpanel; format: cell-based, human; settings: subpanel value, NSC lung cancer
[46] = tested on: CNS cancer subpanel tumor cell lines; test: NCI cytotoxicity screen, subpanel; format: cell-based, human; settings: subpanel value, CNS cancer

Compound: NS(=O)(=O)c1ccc(Cn2c(SCC(=O)NN=Cc3ccccc3O)nc3ccccc3c2=O)cc1 [Compound 6, 4-((2-((2-(2-(2-Hydroxybenzylidene)hydrazineyl)-2-oxoethyl)thio)-4-oxoquinazolin-3(4H)-yl)methyl)benzenesulfonamide]
- GI % ([1]; 10.0 μM one dose, IGROV1): 38%
- GI % ([2]; 10.0 μM one dose): 47%
- GI % ([3]; 10.0 μM one dose): 84%
- GI % ([4]; 10.0 μM one dose): 51%
- GI % ([5]; 10.0 μM one dose): 56%
- GI % ([6]; 10.0 μM one dose): 28%
- GI % ([7]; 10.0 μM one dose): 77%
- GI % ([8]; 10.0 μM one dose, HS-578T): 29%
- GI % ([9]; 10.0 μM one dose): 40%
- GI % ([10]; 10.0 μM one dose): 48%
- GI % ([11]; 10.0 μM one dose): 58%
- GI % ([12]; 10.0 μM one dose): 39%
- GI % ([13]; 10.0 μM one dose): 29%
- GI % ([14]; 10.0 μM one dose): 46%
- GI % [15]: 15%
- GI % ([16]; 10.0 μM one dose): 45%
- GI % [17]: 33%
- GI % ([18]; 10.0 μM one dose): 57%
- GI % ([19]; 10.0 μM one dose): 28%
- GI % [20]: 51%
- GI % ([21]; 10.0 μM one dose, IGROV-4): 60%
- GI % ([22]; 10.0 μM one dose): 46%
- GI % ([23]; 10.0 μM one dose): 35%
- GI % ([24]; 10.0 μM one dose, MCF-7): 50%
- GI % ([25]; 10.0 μM one dose): 58%
- GI % ([26]; 10.0 μM one dose): 43%
- GI % ([27]; 10.0 μM one dose): 80%
- GI % ([28]; 10.0 μM one dose, HCC-2998): 50%
- GI % ([29]; 10.0 μM one dose): 53%
- GI % ([30]; 10.0 μM one dose, IGROV-5): 32%
- GI % ([31]; 10.0 μM one dose): 28%
- GI % ([32]; 10.0 μM one dose): 29%
- GI % [33]: 37%
- GI % ([34]; 10.0 μM one dose): 46%
- GI % ([35]; 10.0 μM one dose): 64%
- GI % [36]: 71%
- GI % ([37]; 10.0 μM one dose): 65%
- GI % ([38]; 10.0 μM one dose): 37%
- GI % ([39]; 10.0 μM one dose): 14%

Compound: COc1cc2ncnc(Nc3ccc(F)c(Cl)c3)c2cc1OCCCN1CCOCC1 [Gefitinib, reference compound]
- GI50 ([1]; Homo sapiens, IGROV-1): 200 nM
- GI50 [40]: 2510 nM
- GI50 ([2]; Homo sapiens): 100 nM
- GI50 ([41]; Homo sapiens): 2600 nM
- GI50 [41]: 2560 nM
- TGI [41]: 12.07 µM
- GI50 ([3]; Homo sapiens): 7.94 µM
- GI50 ([4]; Homo sapiens): 1580 nM
- GI50 ([5]; Homo sapiens): 10 µM
- GI50 ([6]; Homo sapiens): 5.01 µM
- GI50 ([7]; Homo sapiens): 5.01 µM
- GI50 ([8]; Homo sapiens, Hs-578T): 10 µM
- GI50 ([9]; Homo sapiens): 5 nM
- GI50 [42]: 5.01 µM
- GI50 ([10]; Homo sapiens): 10 nM
- GI50 ([11]; Homo sapiens): 5.01 µM
- GI50 ([12]; Homo sapiens): 1250 nM
- GI50 ([43]; Homo sapiens): 3.7 µM
- GI50 [43]: 3.68 µM
- TGI [43]: 12.49 µM
- GI50 ([13]; Homo sapiens): 3.16 µM
- GI50 ([14]; Homo sapiens): 10 µM
- GI50 ([44]; Homo sapiens): 3.3 µM
- GI50 [44]: 3.29 µM
- TGI [44]: 31.62 µM
- GI50 ([16]; Homo sapiens): 12.6 µM
- GI50 ([18]; Homo sapiens): 10 µM
- GI50 ([45]; Homo sapiens): 2100 nM
- GI50 [45]: 2050 nM
- TGI [45]: 13.86 µM
- GI50 ([19]; Homo sapiens): 200 nM
- GI50 ([46]; Homo sapiens): 5.6 µM
- GI50 [46]: 5.64 µM
- TGI [46]: 19.62 µM
- GI50 ([21]; Homo sapiens, OVCAR-4): 7.94 µM
- GI50 ([22]; Homo sapiens): 7.94 µM
- GI50 ([23]; Homo sapiens): 1990 nM
- GI50 ([24]; Homo sapiens, MCF7): 10 µM
- GI50 ([25]; Homo sapiens): 7.94 µM
- GI50 ([26]; Homo sapiens): 310 nM
- GI50 ([27]; Homo sapiens): 3.98 µM
- GI50 ([28]; Homo sapiens, HCC 2998): 10 µM
- GI50 ([29]; Homo sapiens): 80 nM
- GI50 ([30]; Homo sapiens, OVCAR-5): 10 µM
- GI50 ([31]; Homo sapiens): 2510 nM
- GI50 ([32]; Homo sapiens): 7.94 µM
- GI50 ([34]; Homo sapiens): 160 nM
- GI50 ([35]; Homo sapiens): 12.6 µM
- GI50 ([37]; Homo sapiens): 10 µM
- GI50 ([38]; Homo sapiens): 15.8 µM
- GI50 ([39]; Homo sapiens): 3.98 µM

Reference: paper PMC11702208 (RSC Advances, 2025)
